Laboratory results: patent publication US5849782A, “Methods of inhibiting neurodegenerative diseases” (The General Hospital Corporation, priority 1996, dated 1998)

What was measured:
dopamine transporter = dopamine transporter (Mus musculus, UniProt Q61327); settings: read-out: concentration giving complete inhibition of [3H]dopamine uptake
Male Swiss-Webster mice [1] = assay: 3-nitrotyrosine to tyrosine ratio in mouse striatum after MPTP; assay type: in vivo; settings: MPTP 20 mg/kg x4
Method: (§1) Dopamine, 3,4-dihydroxyphenlyacetic acid (DOPAC), homovanillic acid (HVA), p-tyrosine, and 3-nitrotyrosine were quantified by HPLC with 16-electrode electrochemical detection (Beal et al. (1990) supra) and are expressed as ng/mg protein (mean±SEM) (FIG. 1). 3-Nitrotyrosine data are expressed as ratios of 3-nitrotyrosine to p-tyrosine to normalize for differing brain concentrations of tyrosine. The statistical significance of differences was determined via one-way ANOVA followed by Fisher PLSD post hoc test to compare group means. All animal use procedures were in strict accordance with the NIH Guide for the Care and Use of Laboratory Animals and were approved by the local Animal Care Committee.
Role of Peroxynitrite in MPTP. To determine whether peroxynitrite plays a role in MPTP neurotoxicity, we therefore measured the ratio of 3-nitrotyrosine to tyrosine in mouse striatum following administration of MPTP.

Male Swiss-Webster mice [2] = assay: MPTP-induced neurotoxicity in mice: striatal dopamine, DOPAC, HVA; assay type: in vivo, mouse; settings: at 1 week
Method: Methods. Male Swiss-Webster mice (30-35 g:Taconic Farms, Germantown, N.Y., U.S.A.) were treated with either normal saline or MPTP hydrochloride (Research Biochemicals, Natick, Mass., U.S.A.). MPTP was administered in 0.1 ml of water at a dose of 10 mg/kg i.p. at 2-h intervals for six doses or 20 mg/kg i.p. at 2-h intervals for four doses. 7-NI (Cookson Chemical Ltd., Southhampton, U.K.) was dissolved in peanut oil (Sigma, St. Louis, Mo., U.S.A.) at a concentration of 5 mg/ml. Mice received doses of 25 or 50 mg/kg per subcutaneous injection. MPTP-treated animals were treated with peanut oil or 7-NI 12 h before the first, at every MPTP injection, and every 8 h for 48 h after MPTP injections. Eleven to 12 animals were used in each group. Animals were killed at 1 week. The two striata were rapidly dissected and placed in chilled 0.1M perchloric acid. Tissue was subsequently sonicated, and aliquots were taken for protein quantification using a fluorometric assay (Beal et al., 1990) J. Neurochem. 55:1327-1339).
as §1

Male Sprague-Dawley rats = assay: Spontaneous striatal electrophysiological activity; settings: MK-801 4 mg/kg after 7-NI; urethane anesthetized rats
Method: Electrophysiology. Four male Sprague-Dawley rats weighing 300 to 400 g were used for electrophysiological studies. Animals were anesthetized with urethane 1.5 g/kg i.p. and placed in a stereotaxic apparatus with their body temperatures maintained at 37° C. by a feedback heating pad. A 0.5×0.5 cm craniotomy was made and recording electrodes were placed in the anterior striatum using stereotaxic coordinates and aural monitoring. Following electrode placement the craniotomy was covered with 4% agar in saline and 30 min were allowed for stabilization before recordings were made. The spontaneous activity of multiple units were recorded extracellularly in the striatum, 3-4 mm anterior to the bregma and 3-4 mm lateral to the midline at a depth of 2.5-4.0 mm using commercially available tungsten microelectrodes (4 M.OMEGA. at 1 kHz, F. Haer, Inc.). […] Data acquisition and analysis of mean firing rate was performed using Discovery.COPYRGT., Experimenters WorkBench.COPYRGT. and Personal Scientific Workstation.COPYRGT. software (DataWave Technologies, Longmont, Colo.). We investigated the electrophysiological effects of the NMDA antagonist MK-801 and the NOS inhibitor 7-NI. […] Finally, spontaneous activity was recorded after the NMDA channel mediated activity was blocked by injection of MK-801 (4 mg/kg).

[3] = 3-NP-induced neurotoxicity in vitro; Riepe et al. 1994; cited from earlier work
[4] = MPTP 10 mg/kg x6 at 2-h intervals

Chain of dopamine transporter (Q61327 whole entry): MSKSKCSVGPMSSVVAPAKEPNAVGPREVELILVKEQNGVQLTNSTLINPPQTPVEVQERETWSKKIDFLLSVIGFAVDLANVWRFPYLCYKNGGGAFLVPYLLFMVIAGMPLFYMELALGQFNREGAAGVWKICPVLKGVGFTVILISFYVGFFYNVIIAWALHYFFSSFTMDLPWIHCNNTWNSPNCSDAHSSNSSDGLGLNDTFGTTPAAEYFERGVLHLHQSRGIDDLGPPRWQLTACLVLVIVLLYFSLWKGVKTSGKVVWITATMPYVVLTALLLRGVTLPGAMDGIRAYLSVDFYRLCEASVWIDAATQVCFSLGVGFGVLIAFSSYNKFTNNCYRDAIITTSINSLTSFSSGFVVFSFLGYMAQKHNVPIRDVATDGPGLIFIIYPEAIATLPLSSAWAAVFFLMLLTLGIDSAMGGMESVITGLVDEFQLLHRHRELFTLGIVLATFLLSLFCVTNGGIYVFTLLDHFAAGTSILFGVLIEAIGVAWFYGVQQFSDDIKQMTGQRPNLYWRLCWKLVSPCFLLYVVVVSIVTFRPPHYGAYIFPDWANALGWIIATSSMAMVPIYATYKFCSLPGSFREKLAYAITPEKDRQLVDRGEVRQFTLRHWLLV

Structure (SMILES): OC1(c2ccc(Cl)cc2)c2ccccc2C2=NCCN21 (centres unmarked) [mazindol, reference compound]
- IC100 (dopamine transporter): 1 µM

Structure (SMILES): CN1CC=C(c2ccccc2)CC1 [MPTP, 1-methyl-4-phenyl1,2,3,6-tetrahydropyridine]
- increase of 3-nitrotyrosine to tyrosine ratio (Male Swiss-Webster mice [1]): 31%
- depletion in striatal DOPAC levels (Male Swiss-Webster mice [2]; [4]): 27%
- depletion in striatal HVA levels (Male Swiss-Webster mice [2]; [4]): 35%
- depletion in striatal dopamine levels (Male Swiss-Webster mice [2]; [4]): 38%
- depletion in striatal dopamine levels (Male Swiss-Webster mice [2]; MPTP 20 mg/kg x4): 64%

Structure (SMILES): C[C@]12N[C@H](Cc3ccccc31)c1ccccc12 [MK-801, reference compound]
- decrease in mean firing rate in striatum (Male Sprague-Dawley rats): rapid and profound
- effect on ATP depletions [3]: had no effect
